From ChEMBL document CHEMBL3870328, “Synthesis of novel Ral inhibitors: An in vitro and in vivo study” (Bioorg Med Chem Lett, 2016) come the findings set out here.

The nature of data set [1]: (§1) Cytotoxicity against human NCI-H2122 cells under anchorage-independent condition assessed as cell growth inhibition after 10 days by nitro blue tetrazolium-based microscopic analysis. Type of data set: functional. Conditions: NCI-H2122, 240 h.
The nature of data set [2]: Half life in ip dosed mouse plasma. In kind it is ADME, organism-based.
Another data set relates to NCI-H2122. The data set is described as §1. In kind it is functional.
A short description of data set [3]: Drug uptake in lungs of mouse xenografted with human NCI-H2122 cells at 50 mg/kg, ip after 3 hrs by LC-MS/MS analysis. Conditions: lung, read-out: Drug uptake. In kind it is ADME, organism-based.
For data set [4], the target named is T1, Ras-related protein Ral-A (Homo sapiens) (UniProt P11233).
T1 sequence (whole entry): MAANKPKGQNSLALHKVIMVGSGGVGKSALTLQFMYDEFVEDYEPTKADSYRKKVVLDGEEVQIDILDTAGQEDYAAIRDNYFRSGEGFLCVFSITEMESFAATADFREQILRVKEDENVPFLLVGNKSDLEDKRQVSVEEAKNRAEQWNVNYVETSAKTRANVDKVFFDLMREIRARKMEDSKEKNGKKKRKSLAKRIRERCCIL
The experiment in a line: Inhibition of RalA activity in human H2122 spheroids after 4 hrs by RalBP1 pull down assay.

Data set [5] can be described thus: Drug uptake in tumor of mouse xenografted with human NCI-H2122 cells at 50 mg/kg, ip after 3 hrs by LC-MS/MS analysis. Conditions: read-out: Drug uptake. In kind it is ADME, organism-based, Neoplasm.
Data set [6] in a line: Drug uptake in kidney of mouse xenografted with human NCI-H2122 cells at 50 mg/kg, ip after 3 hrs by LC-MS/MS analysis. In kind it is ADME, organism-based. Conditions: read-out: Drug uptake. (In xenograft studies the graft and the host belong to different species.)
Data set [7] in a line: Plasma concentration in mouse xenografted with human NCI-H2122 cells at 50 mg/kg, ip after 3 hrs by LC-MS/MS analysis. In kind it is ADME, organism-based.
Data set [8] can be described thus: Drug uptake in brain of mouse xenografted with human NCI-H2122 cells at 50 mg/kg, ip after 3 hrs by LC-MS/MS analysis. Type of data set: ADME, organism-based. Conditions: read-out: Drug uptake.
Data set [9] is described as follows: Drug uptake in liver of mouse xenografted with human NCI-H2122 cells at 50 mg/kg, ip after 3 hrs by LC-MS/MS analysis. Type of data set: ADME, organism-based. Conditions: read-out: Drug uptake.
Data set [10] is described as follows: Drug uptake in heart of mouse xenografted with human NCI-H2122 cells at 50 mg/kg, ip after 3 hrs by LC-MS/MS analysis. Type of data set: ADME, organism-based. Conditions: read-out: Drug uptake.
In data set [11] the target is T2, Ras-related protein Ral-B (Homo sapiens) (UniProt P11234).
T2 sequence (whole entry): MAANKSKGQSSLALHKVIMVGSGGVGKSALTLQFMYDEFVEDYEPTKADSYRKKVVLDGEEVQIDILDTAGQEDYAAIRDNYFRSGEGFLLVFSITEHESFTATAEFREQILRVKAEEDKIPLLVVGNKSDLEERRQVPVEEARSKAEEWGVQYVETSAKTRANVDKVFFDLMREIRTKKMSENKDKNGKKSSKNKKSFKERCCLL
In words: Inhibition of RalB activity in human H2122 spheroids after 4 hrs by RalBP1 pull down assay.

Data set [12] in a line: Drug level in CD1 mouse liver microsomes treated with 6-amino-4-(2,5-dimethoxyphenyl)-3-(naphthalen-2-yl)-1,4-dihydropyrano[2,3-c]pyrazole-5-carbonitrile at 16.7 uM assessed as CYP450-mediated compound formation in presence of NADPH by LC-MS/MS analysis. In kind it is ADME. Background: Liver microsomes are a subcellular fraction often used to study metabolism.

pIC50: −log10 of the molar value. Active and inactive are the calls of the source. The calls are words filed in the database; no cut-off is given here.

For `COc1cc(OC)c(C2C(C#N)=C(N)Oc3c2c(C)nn3C)c(OC)c1` (stereo not given), the negative logarithm of the IC50 (pIC50) in data set [1] is 5.80.

As to `Cc1nn(C)c2c1C(c1ccncc1)C(C#N)=C(N)O2` (stereo not given), in data set [1], the pIC50 was 5.39.

Take `Cc1nn(-c2ccccc2)c2c1C(c1ccccc1)C(C#N)=C(N)O2` (stereo not given): the pIC50 in data set [1] was 5.57.

On to `COc1ccc(-c2nn(-c3ccccc3)c3c2C(c2ccc(F)cc2)C(C#N)=C(N)O3)cc1OC` (stereo not given), for which the pIC50 in data set [1] was 5.12.

Turning to `Cn1nc(-c2ccccc2)c2c1OC(N)=C(C#N)C2c1cc(F)cc(F)c1` (stereo not given), in data set [1], the negative logarithm of the IC50 (pIC50) is 5.18.

With `Cn1nc(-c2ccccc2)c2c1OC(N)=C(C#N)C2c1cccc(Br)n1` (stereo not given), in data set [1], the pIC50 is 5.77.

Consider `Cc1nn(C)c2c1C(c1cccnc1)C(C#N)=C(N)O2` (stereo not given), for which the pIC50 in data set [1] was 5.06.

As for `Cc1nn(C)c2c1C(c1ccc(OC(F)(F)F)cc1)C(C#N)=C(N)O2` (stereo not given), the pIC50 in data set [1] is 5.54.

Take `Cc1nn(C)c2c1C(c1ccc3c(c1)OCCO3)C(C#N)=C(N)O2` (stereo not given): the pIC50 in data set [1] was 5.07.

Consider `COc1ccc(-c2nn(C)c3c2C(c2ccccc2)C(C#N)=C(N)O3)cc1OC` (stereo not given), for which the negative logarithm of the IC50 (pIC50) in [1] was below 5.00.

As to `Cn1nc(-c2ccccc2)c2c1OC(N)=C(C#N)C2c1ccc2c(c1)OCCO2` (stereo not given), the negative-log IC50 (pIC50) in data set [1] was 5.08.

In data set [2], `Cn1nc(-c2ccccc2)c2c1OC(N)=C(C#N)C2c1ccc(-n2ccnc2)cc1` (stereo not given) showed a half-life below 1.5 h. Moreover, the “growth inhibition (GI)” value in the data set on NCI-H2122 was “Active”. In addition, the concentration at 3 h in [3] came to 1090 ng/g; in [5], 380 ng/g; in data set [6], 630 ng/g; in data set [7] it was 490 ng/mL; in data set [8], 170 ng/g; in data set [9], 980 ng/g. For the same compound, the concentration at 3 h in data set [10] came to 930 ng/g. In addition, the inhibition entry in data set [4] and in data set [11] was “Dose-dependent effect” in each case.

On to `Cn1nc(-c2ccccc2)c2c1OC(N)=C(C#N)C2c1ccc(C#N)cc1` (stereo not given), for which, in data set [1], the negative logarithm of the IC50 (pIC50) is 5.28.

Regarding `Cc1nn(C)c2c1C(c1ccc(C#N)cc1)C(C#N)=C(N)O2` (stereo not given), the pIC50 in data set [1] was 5.25.

As for `COc1ccc(-c2nn(C)c3c2C(c2ccc(F)cc2)C(C#N)=C(N)O3)cc1` (stereo not given), in [1], the negative-log IC50 (pIC50) was below 5.00.

In the case of `COc1ccc(C2C(C#N)=C(N)Oc3c2c(C)nn3C)cc1` (stereo not given), the pIC50 in data set [1] is 5.07.

For the compound `Cc1nn(C)c2c1C(c1ccc(C(C)C)cc1)C(C#N)=C(N)O2` (stereo not given), the negative-log IC50 (pIC50) in data set [1] was 5.40.

Regarding `CC(C)c1ccc(C2C(C#N)=C(N)Oc3c2c(-c2ccccc2)nn3C)cc1` (stereo not given), the pIC50 in data set [1] was 5.27.

As to `Cc1nn(C)c2c1C(c1cccc(Br)n1)C(C#N)=C(N)O2` (stereo not given), the pIC50 in data set [1] is 5.62.

As to `Cc1nn(C)c2c1C(c1ccc(F)cc1)C(C#N)=C(N)O2` (stereo not given), the negative logarithm of the IC50 (pIC50) in data set [1] was below 5.00.

As to `COc1ccc(-c2nn(C)c3c2C(c2ccc(OC)cc2)C(C#N)=C(N)O3)cc1` (stereo not given), the pIC50 in data set [1] is below 5.00.

For the compound `Cn1nc(-c2ccccc2)c2c1OC(N)=C(C#N)C2c1ccc(C(F)(F)F)cc1` (stereo not given), in [1], the pIC50 is 5.39.

On to `COc1ccc(C2C(C#N)=C(N)Oc3c2c(C)nn3C)cc1F` (stereo not given), for which, in data set [1], the negative-log IC50 (pIC50) is 5.24.

As to `COc1ccc(C2C(C#N)=C(N)Oc3c2c(-c2ccccc2)nn3C)cc1` (stereo not given), the pIC50 in data set [1] is below 5.00.

For `Cc1nn(C)c2c1C(c1ccccc1)C(C#N)=C(N)O2` (stereo not given), in data set [1], the pIC50 is 5.04.

In the case of `Cn1nc(-c2ccccc2)c2c1OC(N)=C(C#N)C2c1ccc(OC(F)(F)F)cc1` (stereo not given), in [1], the pIC50 is 5.26.

Regarding `Cc1nn(-c2ccccc2)c2c1C(c1ccc(F)cc1)C(C#N)=C(N)O2` (stereo not given), the negative logarithm of the IC50 (pIC50) in data set [1] is 5.18.

In the case of `N#CC1=C(N)Oc2[nH]nc(-c3ccc4ccccc4c3)c2C1c1cc(O)ccc1O` (stereo not given), in data set [12], the Drug metabolism entry is reported as “Metabolite_Detected”.

For `Cn1nc(-c2ccccc2)c2c1OC(N)=C(C#N)C2c1ccccc1` (stereo not given), in [1], the pIC50 was below 5.00.

For the compound `Cc1nn(C)c2c1C(c1cc(F)cc(F)c1)C(C#N)=C(N)O2` (stereo not given), the pIC50 in data set [1] was 5.38.

On to `Cn1nc(-c2ccccc2)c2c1OC(N)=C(C#N)C2c1cccnc1` (stereo not given), for which the pIC50 in data set [1] was below 5.00.

Take `N#CC1=C(N)Oc2c(c(-c3ccccc3)nn2-c2ccccc2)C1c1ccc(F)cc1` (stereo not given): the negative-log IC50 (pIC50) in data set [1] was 5.39.

For `N#CC1=C(N)Oc2c(c(-c3ccccc3)nn2-c2ccccc2)C1c1ccccc1` (stereo not given), in data set [1], the pIC50 is 5.39.

In the case of `COc1ccc(-c2nn(C)c3c2C(c2ccc(F)cc2)C(C#N)=C(N)O3)cc1OC` (stereo not given), the negative-log IC50 (pIC50) in [1] is below 5.00.

Consider `COc1ccc(C2C(C#N)=C(N)Oc3c2c(-c2ccccc2)nn3-c2ccccc2)cc1` (stereo not given), for which the pIC50 in data set [1] is 5.51.

`COc1ccc(C2C(C#N)=C(N)Oc3c2c(-c2ccccc2)nn3C)cc1F` (stereo not given): in [1], the negative logarithm of the IC50 (pIC50) is below 5.00.

For `COc1ccc(-c2nn(-c3ccccc3)c3c2C(c2ccc(OC)cc2)C(C#N)=C(N)O3)cc1` (stereo not given), in data set [1], the pIC50 is 5.96.

On to `COc1ccc(-c2nn(C)c3c2C(c2ccccc2)C(C#N)=C(N)O3)cc1` (stereo not given), for which the negative logarithm of the IC50 (pIC50) in data set [1] is below 5.00.

In data set [2], `Cc1nn(C)c2c1C(c1ccc(C(F)(F)F)cc1)C(C#N)=C(N)O2` (stereo not given) had a half-life below 1.5 h. In data set [1], the negative-log IC50 (pIC50) was 5.66. Also, the concentration at 3 h was 1870 ng/g in [3]; 1220 ng/g in [5]; 2400 ng/g in data set [6]; 5640 ng/mL in data set [7]; 1390 ng/g in data set [8]; 4070 ng/g in data set [9]. In [10], the concentration at 3 h came out at 2080 ng/g. In addition, the inhibition entry in data set [4] and in data set [11] was “Dose-dependent effect” each time.

Regarding `COc1ccc(-c2nn(-c3ccccc3)c3c2C(c2ccc(F)cc2)C(C#N)=C(N)O3)cc1` (stereo not given), the negative logarithm of the IC50 (pIC50) in data set [1] was 5.22.

Regarding `Cn1nc(-c2ccccc2)c2c1OC(N)=C(C#N)C2c1ccc(F)cc1` (stereo not given), the pIC50 in data set [1] was below 5.00.

In the case of `COc1ccc(C2C(C#N)=C(N)Oc3c2c(C)nn3-c2ccccc2)cc1` (stereo not given), the pIC50 in data set [1] was 5.39.

In the case of `COc1ccc(-c2nn(-c3ccccc3)c3c2C(c2ccccc2)C(C#N)=C(N)O3)cc1` (stereo not given), in data set [1], the pIC50 is 5.14.

As for `Cn1nc(-c2ccccc2)c2c1OC(N)=C(C#N)C2c1ccncc1` (stereo not given), the pIC50 in data set [1] was 5.28.

As to `Cc1nn(C)c2c1C(c1ccc(-n3ccnc3)cc1)C(C#N)=C(N)O2` (stereo not given), the pIC50 in data set [1] was 5.77.

A word on the pIC50: it is −log10 of the IC50, conventionally taken in molar units. Broadly, the half-life is the time in which the quantity being followed falls by half. A low value points to fast loss.
